Reference: DBAASP
≈ marks a conversion by molar mass, not a printed value. One block for each molecule: values may come before it.

Legend:
Assay in all cases: ≥ marks a high value that may be exact or a test limit, other limits are often not marked, values filed in µg/mL are converted to µM
[1] = tested on: Lacticaseibacillus rhamnosus 7469
[2] = tested on: Lactiplantibacillus plantarum 8014
[3] = tested on: Staphylococcus epidermidis ATCC 12228
[4] = tested on: Staphylococcus aureus ATCC 25923
[5] = tested on: Candida tropicalis CGMCC 2.1975
[6] = tested on: Candida albicans CGMCC 2.2086
[7] = tested on: Candida parapsilosis CGMCC 2.3989
[8] = tested on: Staphylococcus aureus ATCC 29213
Escherichia coli UB1005 = tested on: Escherichia coli UB1005
[9] = tested on: Pseudomonas aeruginosa H103
[10] = tested on: Enterococcus faecalis ATCC 29212
[11] = tested on: Pseudomonas aeruginosa 253
[12] = tested on: Pseudomonas aeruginosa 919
[13] = tested on: Pseudomonas aeruginosa PAO1
[14] = tested on: Salmonella enterica serovar Typhimurium
Candida albicans = tested on: Candida albicans
[15] = tested on: Pseudomonas aeruginosa 910
[16] = tested on: Staphylococcus epidermidis
[17] = tested on: Escherichia coli ATCC 43827
[18] = tested on: Escherichia coli ATCC 25922
[19] = tested on: Escherichia coli ATCC 11775
[20] = tested on: Escherichia coli ATCC 35218
[21] = tested on: Pseudomonas aeruginosa ATCC 27853
Escherichia coli ESBL 4 = tested on: Escherichia coli ESBL 4
Escherichia coli ESBL = tested on: Escherichia coli ESBL
[22] = tested on: Staphylococcus aureus NBRC 13276
[23] = tested on: Escherichia coli DH5alpha
[24] = tested on: Pseudomonas aeruginosa NBRC 13275
[25] = tested on: Cryptococcus neoformans var. grubii H99
[26] = tested on: Staphylococcus aureus JE2
[27] = tested on: Staphylococcus aureus ATCC 43300
Escherichia coli K-12 = tested on: Escherichia coli K-12
[28] = tested on: Candida albicans ATCC 90028
[29] = tested on: Acinetobacter baumannii ATCC 19606
[30] = tested on: Klebsiella pneumoniae ATCC 700603

Compound: CC[C@H](C)[C@H](N)C(=O)N[C@@H](Cc1cnc[nH]1)C(=O)N[C@@H](Cc1cnc[nH]1)C(=O)N[C@H](C(=O)N[C@@H](Cc1cnc[nH]1)C(=O)N[C@@H](Cc1cnc[nH]1)C(=O)N[C@H](C(=O)N[C@H](C(=O)N[C@@H](Cc1cnc[nH]1)C(=O)N[C@@H](Cc1cnc[nH]1)C(=O)N[C@H](C(=O)N[C@@H](Cc1cnc[nH]1)C(=O)N[C@@H](Cc1cnc[nH]1)C(=O)N[C@H](C(=O)N[C@H](C(=O)N[C@@H](Cc1cnc[nH]1)C(=O)N[C@@H](Cc1cnc[nH]1)C(=O)N[C@H](C(=O)N[C@@H](Cc1cnc[nH]1)C(=O)N[C@@H](Cc1cnc[nH]1)C(=O)N[C@H](C(N)=O)[C@@H](C)CC)[C@@H](C)CC)[C@@H](C)CC)[C@@H](C)CC)[C@@H](C)CC)[C@@H](C)CC)[C@@H](C)CC)[C@@H](C)CC [IHHIHHIIHHIHHIIHHIHHI]
MIC [1]: ≥ 64 µM
MIC [2]: ≥ 64 µM
MIC [3]: > 64 µM
MIC [4]: > 64 µM
MIC [5]: 1 µM (≈ 2.68 µg/mL)
MIC [6]: 2 µM (≈ 5.36 µg/mL)
MIC [7]: 2 µM (≈ 5.36 µg/mL)
MIC [8]: > 64 µM

Compound: CC[C@H](C)[C@H](NC(=O)[C@H](CCCN=C(N)N)NC(=O)[C@H](C)NC(=O)[C@H](CCCN=C(N)N)NC(=O)[C@@H](N)CCCN=C(N)N)C(=O)N[C@H](C(=O)N[C@H](C(=O)N[C@H](C(=O)N[C@@H](CCCN=C(N)N)C(=O)N[C@H](C(=O)N[C@@H](C)C(=O)N[C@@H](CCCN=C(N)N)C(N)=O)C(C)C)[C@@H](C)CC)C(C)C)C(C)C [RRARIVVIRVAR]
MIC [4]: 10.9 µM (≈ 16 µg/mL)
MIC (Escherichia coli UB1005): 2.73 µM (≈ 4 µg/mL)
MIC [9]: 5.46 µM (≈ 7.99 µg/mL)
MIC [10]: 10.9 µM (≈ 16 µg/mL)
MIC [11]: ≥ 32 µM
MIC [12]: 16 µM (≈ 23.4 µg/mL)
MIC [13]: 32 µM (≈ 46.8 µg/mL)
MIC [14]: 5.46 µM (≈ 7.99 µg/mL)
MIC (Candida albicans): 5.46 µM (≈ 7.99 µg/mL)
MIC [15]: ≥ 32 µM
MIC [16]: 1.37 µM (≈ 2 µg/mL)

Compound: CC[C@H](C)[C@H](NC(=O)[C@H](Cc1ccc(O)cc1)NC(=O)[C@H](CCC(N)=O)NC(=O)[C@H](CC(C)C)NC(=O)[C@H](C)NC(=O)[C@H](CCCCN)NC(=O)[C@H](CCCCN)NC(=O)[C@H](CCSC)NC(=O)[C@@H](N)CCCCN)C(=O)N[C@@H](CCCCN)C(=O)N[C@@H](CC(C)C)C(=O)N[C@@H](CC(C)C)C(=O)N[C@@H](CCCCN)C(=O)N[C@@H](CCC(=O)O)C(N)=O [KMKKALQYIKLLKE]
MIC [17]: 25 µM (≈ 43.3 µg/mL)
MIC [18]: 100 µM (≈ 173 µg/mL)
MIC [19]: ≥ 100 µM
MIC [20]: 25 µM (≈ 43.3 µg/mL)
MIC [21]: > 100 µM
MIC (Escherichia coli ESBL 4): ≥ 100 µM
MIC (Escherichia coli ESBL): ≥ 100 µM

Compound: CC(=O)N[C@@H](C)C(=O)N[C@@H](CCCCN)C(=O)N[C@@H](CCCCN)C(=O)N[C@@H](Cc1ccccc1)C(=O)NCC(=O)N[C@@H](CCCCN)C(=O)N[C@@H](C)C(=O)N[C@@H](Cc1ccccc1)C(=O)N[C@H](C(N)=O)C(C)C [AKKFGKAFV]
MIC [22]: ≥ 400 µM
MIC [23]: ≥ 200 µM
MIC [24]: ≥ 200 µM

Compound: CC[C@H](C)[C@H](NC(=O)[C@@H](NC(=O)[C@H](CO)NC(=O)[C@H](C)NC(=O)[C@@H](NC(=O)[C@H](CCCCN)NC(=O)[C@H](CCCN=C(N)N)NC(=O)[C@@H](NC(=O)[C@@H](NC(=O)[C@H](CCCN=C(N)N)NC(=O)[C@H](Cc1c[nH]c2ccccc12)NC(=O)[C@H](CC(C)C)NC(=O)CN)C(C)C)[C@@H](C)CC)C(C)C)C(C)C)C(=O)NCC(=O)NCC(=O)N[C@@H](CC(C)C)C(=O)O [GLWRVIRKVASVIGGL]
MIC [25]: 1.16 µM (≈ 2 µg/mL)
MIC [26]: 9.28 µM (≈ 16 µg/mL)
MIC [27]: 2.32 µM (≈ 4 µg/mL)
MIC [18]: 2.32 µM (≈ 4 µg/mL)
MIC (Escherichia coli K-12): 18.6 µM (≈ 32 µg/mL)
MIC [28]: 18.6 µM (≈ 32 µg/mL)
MIC [29]: 1.16 µM (≈ 2 µg/mL)
MIC [21]: > 18.6 µM
MIC [30]: 4.64 µM (≈ 8 µg/mL)

Now from value to molecule:

MIC [11]: 16 µM (≈ 30 µg/mL)
MIC [12]: ≥ 32 µM
MIC [13]: 4 µM (≈ 7.51 µg/mL)
MIC [15]: 8 µM (≈ 15 µg/mL)
Compound: CC[C@H](C)[C@H](NC(=O)[C@@H](N)Cc1ccccc1)C(=O)N[C@@H](CCCCN)C(=O)N[C@@H](Cc1c[nH]c2ccccc12)C(=O)N[C@@H](CCCN=C(N)N)C(=O)N[C@@H](CO)C(=O)N[C@@H](CCCN=C(N)N)C(=O)N[C@@H](Cc1c[nH]c2ccccc12)C(=O)N[C@@H](Cc1c[nH]c2ccccc12)C(=O)N[C@@H](CCCCN)C(=O)N[C@@H](CCCCN)C(=O)N[C@@H](CCCN=C(N)N)C(=O)N[C@H](C(N)=O)[C@@H](C)O [FIKWRSRWWKKRT]

MIC [25]: 4.83 µM (≈ 8 µg/mL)
MIC [26]: 4.83 µM (≈ 8 µg/mL)
MIC [27]: 2.42 µM (≈ 4 µg/mL)
MIC [18]: > 19.3 µM
MIC (Escherichia coli K-12): 9.67 µM (≈ 16 µg/mL)
MIC [28]: 19.3 µM (≈ 32 µg/mL)
MIC [29]: 9.67 µM (≈ 16 µg/mL)
MIC [21]: > 19.3 µM
MIC [30]: > 19.3 µM
Compound: CC[C@H](C)[C@H](NC(=O)[C@@H](NC(=O)[C@H](CO)NC(=O)[C@H](C)NC(=O)[C@@H](NC(=O)[C@H](CCCCN)NC(=O)[C@H](CCCCN)NC(=O)[C@@H](NC(=O)[C@@H](NC(=O)[C@H](CC(=O)O)NC(=O)[C@H](Cc1c[nH]c2ccccc12)NC(=O)[C@H](CC(C)C)NC(=O)CN)C(C)C)[C@@H](C)CC)C(C)C)C(C)C)C(=O)NCC(=O)NCC(=O)N[C@@H](CC(C)C)C(=O)O [GLWDVIKKVASVIGGL]

MIC [17]: 3 µM (≈ 6.44 µg/mL)
MIC [18]: 25 µM (≈ 53.6 µg/mL)
MIC [19]: ≥ 100 µM
MIC [20]: 6 µM (≈ 12.9 µg/mL)
MIC [21]: 100 µM (≈ 215 µg/mL)
MIC (Escherichia coli ESBL 4): ≥ 100 µM
MIC (Escherichia coli ESBL): 12.5 µM (≈ 26.8 µg/mL)
Compound: CC[C@H](C)[C@H](NC(=O)[C@H](Cc1ccc(O)cc1)NC(=O)[C@H](CCC(N)=O)NC(=O)[C@H](CC(C)C)NC(=O)[C@H](C)NC(=O)[C@H](CCCCN)NC(=O)[C@H](CCCCN)NC(=O)[C@H](CCSC)NC(=O)[C@H](CCCCN)NC(=O)[C@H](CCCCN)NC(=O)[C@H](CCCCN)NC(=O)[C@@H](N)CCCN=C(N)N)C(=O)N[C@@H](CCCCN)C(=O)N[C@@H](CC(C)C)C(=O)N[C@@H](CC(C)C)C(=O)N[C@@H](CCCCN)C(=O)N[C@@H](CCC(=O)O)C(N)=O [RKKKMKKALQYIKLLKE]
